From patent US7250425B2, “8-aza-bicyclo[3.2.1]octane derivatives and their use as monoamine neurotransmitter re-uptake inhibitors” (priority 2003, dated 2007)
Where a name gives a salt, the structure may show the parent alone.

Key:
[1] = molecular target: T1, reuptake of dopamine (DA) in synaptosomes (Rattus norvegicus, UniProt P23977); experiment: In vitro inhibition of dopamine reuptake in synaptosomes; type: biochemical
T1 construct: in synaptosomes as described in WO 97/16451; from tissue
Description: (§1) A number of compounds were tested for their ability to Inhibit the reuptake of the monoamine neurotransmitters dopamine (DA) noradrenaline(NA) and serotonin (5-HT) in synaptosomes as described in WO 97/16451.
(§2) The test values are given as IC50 (the concentration (μM) of the test substance which inhibits the specific binding of ^3H-DA, ^3H-NA, or 3H-5-HT by 50%).

[2] = molecular target: T2, reuptake of serotonin (5-HT) in synaptosomes (Rattus norvegicus, UniProt P31652); experiment: In vitro inhibition of serotonin reuptake in synaptosomes; type: biochemical
T2 construct: in synaptosomes as described in WO 97/16451; from tissue
T2 sequence (P31652 whole entry): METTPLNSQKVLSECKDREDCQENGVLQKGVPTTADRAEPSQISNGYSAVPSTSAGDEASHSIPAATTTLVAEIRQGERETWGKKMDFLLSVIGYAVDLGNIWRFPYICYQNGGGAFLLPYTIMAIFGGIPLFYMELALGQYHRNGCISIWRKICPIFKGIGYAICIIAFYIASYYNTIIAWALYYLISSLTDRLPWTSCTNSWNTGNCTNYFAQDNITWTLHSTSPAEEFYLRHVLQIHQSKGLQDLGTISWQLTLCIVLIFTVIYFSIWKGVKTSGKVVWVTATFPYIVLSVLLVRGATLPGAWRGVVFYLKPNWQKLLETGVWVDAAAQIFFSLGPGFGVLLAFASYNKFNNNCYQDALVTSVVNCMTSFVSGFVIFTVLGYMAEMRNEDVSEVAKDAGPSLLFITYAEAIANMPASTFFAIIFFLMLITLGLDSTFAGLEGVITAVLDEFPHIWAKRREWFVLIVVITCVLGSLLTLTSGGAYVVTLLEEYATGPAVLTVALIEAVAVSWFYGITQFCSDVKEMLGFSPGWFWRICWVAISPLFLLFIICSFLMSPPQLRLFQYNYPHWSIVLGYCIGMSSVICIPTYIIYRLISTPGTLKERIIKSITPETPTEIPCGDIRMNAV
Description: as §1, §2

T1 sequence (P23977 whole entry): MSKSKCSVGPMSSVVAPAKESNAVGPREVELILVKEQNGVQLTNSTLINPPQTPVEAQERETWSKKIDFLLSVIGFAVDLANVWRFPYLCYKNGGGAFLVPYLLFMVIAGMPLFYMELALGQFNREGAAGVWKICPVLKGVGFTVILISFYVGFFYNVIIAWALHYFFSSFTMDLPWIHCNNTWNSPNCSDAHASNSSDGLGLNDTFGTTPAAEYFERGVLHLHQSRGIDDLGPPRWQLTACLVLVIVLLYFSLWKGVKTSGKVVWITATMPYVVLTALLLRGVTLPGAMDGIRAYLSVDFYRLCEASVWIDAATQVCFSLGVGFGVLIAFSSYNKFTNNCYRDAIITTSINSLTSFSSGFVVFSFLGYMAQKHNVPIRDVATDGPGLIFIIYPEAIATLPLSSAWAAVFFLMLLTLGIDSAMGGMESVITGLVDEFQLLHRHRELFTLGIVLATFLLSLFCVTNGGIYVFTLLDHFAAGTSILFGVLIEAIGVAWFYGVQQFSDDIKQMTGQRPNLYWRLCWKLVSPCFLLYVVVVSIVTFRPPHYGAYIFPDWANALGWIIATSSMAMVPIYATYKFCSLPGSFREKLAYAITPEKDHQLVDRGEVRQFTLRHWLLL

Compound	IC50 [1]	IC50 [2]
CN1C2CCC1[C@H](COc1cccc(Cl)c1Cl)[C@@H](c1cccc(Cl)c1)C2 (stereo partly drawn) [1st compound of method D, (2R,3S)-2-(2,3-Dichlorophenoxymethyl)-8-methyl-3-(3-chlorophenyl)-8-aza-bicyclo[3.2.1]octane fumaric acid salt]	62 nM	0.72 nM
Clc1cccc(C2CC3CCC(N3)C2COc2cccc(Cl)c2Cl)c1 [1st compound of method E, (2R,3S)-2-(2,3-Dichlorophenoxymethyl)-8-H-3-(3-chlorophenyl)-8-aza-bicyclo[3.2.1]octane fumaric acid salt]	100 nM	6.2 nM
Clc1cccc(C2CC3CCC(N3)C2COc2cccc3ccccc23)c1 [2nd compound of method E, (2R,3S)-2-(1-naphthyloxymethyl)-8-H-3-(3-chlorophenyl)-8-aza-bicyclo[3.2.1]octane fumaric acid salt]	88 nM	13 nM
